Assays:
Format in all cases: cell-based, human
MDA-MB-231 cells [1] = assay: PI staining cell cycle analysis by flow cytometry; details: 24 h treatment; HOE 140 up to 100 μM
Experimental: MDA-MB-231 were plated at 500,000/plate in 10 cm plates containing medium (10% FBS/DMEM), and allowed to adhere for about 18 h. Thereafter, cells were serum-starved and treated with and without the B2RAs at the indicated concentrations for 24 h. At the end of treatments, cells were harvested, rinsed and fixed with ice cold ethanol 95%, for 2 h at 4°C. Fixed cells were rehydrated with 800 µl PBS for 30 min, and then washed again with PBS to remove all traces of ethanol. Cells were treated with RNase for 30 min prior to staining. PI was added to cell suspension at a concentration of 15 µg/ml and incubated overnight at 4°C. PI staining was assessed by flow cytometry using a FACSCanto II flow cytometer (BD Biosciences).

MDA-MB-231 cells [2] = assay: Annexin V/PI apoptosis and beta-galactosidase senescence assays; details: Annexin V and active caspase-3 positivity 24h; β-galactosidase 72h
Experimental: The effect of B2RAs on cellular senescence was assessed using the Senescence β-Galactosidase Staining Kit (Cell Signaling). MDA-MB-231 cells were plated at 500 000 cells/well in 6-well plates, and serum-starved right before the beginning of treatments. Cells were treated with and without the B2RAs at the indicated concentrations for 72 h. At the end of treatment, surviving cells were fixed with 2% formaldehyde, 0.2% glutaraldehyde for 15 min at room temperature. Fixed cells were then washed and stained with fresh senescence-associated β-galactosidase stain solution (sodium phosphate buffer, pH 6.0, containing 1mg of X-gal (5-bromo-4-chloro-3-indolyl-β-d-galactopyranoside)/ml 40 mM citric acid, 5 mM potassium ferrocyanide, 5 mM potassium ferricyanide, 150 mM NaCl, 2 mM MgCl2) at 37°C. Staining was detected by light microscopy. As a positive control for senescence, we serum starved porcine cerebral microvascular endothelial cells (pCMVEC) (kindly provided by S Chemtob) for 48 h.
MDA-MB-231 and COS-1 cells were plated at 500,000/well in 6-well plates containing medium (10% FBS/DMEM), and allowed to adhere for about 18 h. On the next day, cells were serum-starved and then treated with and without the B2RAs at the indicated concentrations for 24 h. To assess induction of apoptosis due to treatment, we used the Annexin-V-FLUOS Staining kit (Roche) according to manufacturer’s specifications. Briefly, at the end of treatments, cells were harvested, rinsed and incubated in 100 µl of Annexin-V-FLUOS labeling solution (containing 2 µl of Annexin-V-Fluos reagent and 1 µl of PI (15 µg/ml)) for 15 min at room temperature. Cells were analyzed on a FACSCanto II flow cytometer (BD Biosciences). Early stage apoptosis was measured using annexin V-Fluos (RocheMolecular Biochemicals) in conjunction with PI (Sigma) to distinguish among early apoptosis and late apoptosis/necrosis. Bar diagram showing the distribution of early, late/necrotic cell populations.

MDA-MB-231 cells [3] = assay: Western blot of cell cycle, apoptosis and p38 proteins
Experimental: For western blot analysis, appropriate amount of cell lysates or membrane and nuclear fractions (25–50 µg protein) were denatured, resolved on 9–12% SDS–PAGE and electrotransferred onto PVDF membranes. Blots were blocked using 5% nonfat dry milk and probed using appropriate primary antibodies in blocking buffer overnight at 4°C.

MDA-MB-231 cells [4] = assay: Drug-drug synergy experiments (MTT, combination index); details: IC25 ratios, 72h, CalcuSyn
Experimental: Interactions (synergy, additive, antagonistic activities) between CP-B2RAs (FR173657 and NG68) and chemotherapeutic drugs (doxorubicin and paclitaxel) were evaluated using MTT standard assays. Twenty-four hours after seeding, cells were treated with CP-B2RAs, the other testing drug, or in combination. For combination testing, CP-B2RAs or the other testing drugs were added to plate in triplicate wells in ratios of IC25 (IC25A: IC25B), and cells are incubated in drug-treated medium for 72h and cell viability determined by MTT. Synergy was determined by calculating combination index (CI) value with the formula CI = (CA,X / ICx,A) + (CB,X / ICx,B), where CA,X and CB,X are concentrations of drug A and drug B used in combination to achieve x% drug effect. ICx,A and ICx,B are concentrations for single agents to achieve the same effect. A CI of less than, equal to, and more than 1 indicates synergy, additivity, and antagonism, respectively.

[5] = 24h treatment, whole-cell lysates

CC(=O)Nc1ccc(/C=C/C(=O)NCC(=O)N(C)c2ccc(Cl)c(COc3cccc4ccc(C)nc34)c2Cl)cn1 [FR 173657]
cell cycle distribution (MDA-MB-231 cells [1]): tend to induce G0/G1 cell cycle arrest
induction of apoptosis / senescence (MDA-MB-231 cells [2]): underwent apoptosis, but not senescence
expression of BAD and p27Kip1 (MDA-MB-231 cells [3]; [5]): increased expression
levels of MAPK and cyclin A (MDA-MB-231 cells [3]; [5]): decreased the levels of MAPK and cyclin A
levels of anti-apoptotic protein XIAP (MDA-MB-231 cells [3]; [5]): appeared to reduce the levels
phosphorylation of p38 (MDA-MB-231 cells [3]; over time): significantly increased the phosphorylation
combination index (CI) (MDA-MB-231 cells [4]; combination with doxorubicin): below 1
combination index (CI) (MDA-MB-231 cells [4]; combination with paclitaxel): below 1

From article PMC5839409, “Targeting intracellular B2 receptors using novel cell-penetrating antagonists to arrest growth and induce apoptosis in human triple-negative breast cancer” (Oncotarget, 2018)
